Assay [1] deals with Ba/F3 LMNA-NTRK1-G595R cells. Put plainly: Proliferation of Ba/F3 LMNA-NTRK1-G595R cells (CellTiter-Glo). The class given is cell-based. Conditions: Mus musculus, BaF3; Table 5; 72 hours. From the text: Ba/F3 LMNA-NTRK1-G595R is a stable transgenic cell line constructed by KYinno Biotechnology Co., Ltd. on mouse primary B cell Ba/F3 wherein NTRK1 is highly expressed with a mutation of G at position 595 to R, and fused with LMNA to form LMNA-NTRK1. • [Test method]: Promega's CellTiter-Glo® Luminescent Cell Viability Assay kit was used to evaluate the inhibitory activity of the compounds on the proliferation of Ba/F3 LMNA-NTRK1-G595R cells. • [Instrument]: Spectramax M3 multifunctional microplate reader from Molecular Devices. • [Test materials]: Ba/F3 LMNA-NTRK1-G595R cell line (constructed by KYinno Biotechnology Co., Ltd. (Beijing)), 96-well transparent flat-bottomed black-walled cell culture plate (Corning, cat #3603), RPMI-1640 media (GE, cat #SH30027.01), fetal bovine serum FBS (Thermo Fisher, cat #10099-141), CellTiter-Glo® Luminescent Cell Viability Assay kit (Promega, cat #G7572), PBS (Solarbio, cat #P1020), DMSO (Sigma, cat #D2650). • [Experimental procedure]: When resuscitating Ba/F3 LMNA-NTRK1-G595R cells, the freezing tube was quickly shaken in a 37° C. water bath to melt within 1 minute. The thawed cell suspension was mixed uniformly with RPMI1640 medium containing 10% FBS, centrifuged at 1000 rpm for 5 minutes, and the supernatant discarded. 5 mL of complete medium (RPMI1640 medium with 10% FBS) was taken to resuspend the cell pellets, charged into a cell culture flask with a bottom area of 25 cm^2, and incubated in a cell incubator at 37° C., 95% humidity and 5% CO2. Cells were allowed to passage when the number of cells reached about 10^6 cells/mL. For cell passage, the old cell suspension was directly pipetted evenly, 1/5 of the cell suspension was kept, 4 mL of new complete medium was added, after pipetting evenly, the cell flask was placed in the cell incubator for further culturing. Cell plating was performed when the number of cells reached about 10^6 cells/mL again. For cell plating, 1/5 of the cell suspension was kept for further culturing as in the cell passage method, and the remaining 4/5 of the cell suspension was placed in a 15 mL centrifuge tube, detected for cell viability by Trypan blue exclusion method to ensure that cell viability was above 90%. A cell suspension with a density of 5.56×10^4 viable cells/mL was prepared with complete medium, and 90 μL of such cell suspension was added to a 96-well cell culture plate to obtain the cell density of 5000 viable cells/mL in the cell culture plate. A control group containing no cells, no compound and only complete medium (i.e. culture medium control) and a control group containing no compound but containing cells (i.e. cell control) were set. The cell plate was placed in a cell incubator overnight. The 10 mM compound stock solution in DMSO was first serially diluted with DMSO at a dilution factor of 3.16 times, to obtain 9 concentrations, and the 10th concentration was set as DMSO control without compound. Then, PBS was used to dilute the DMSO solutions of compounds of different concentrations, at a dilution factor of 100 times, so that the DMSO concentration in the compound solution of each concentration was 1%. Finally, 10 μL of each of the above solutions was added to the corresponding cell culture plate, so that the initial compound concentration was 10 μM, with the remaining concentrations being successively diluted at a dilution factor of 3.16 times, and the DMSO content in the cell culture plate was 0.1%. The cell plate was placed in a cell incubator and cultured for 72 hours. For endpoint detection, the CellTiter-Glo reagent was melted, and the cell plate was moved to room temperature to equilibrate for 30 minutes, added with 100 μL of CellTiter-Glo for each well, and shaken on an orbital shaker for 5 minutes to fully lyse the cells. The plate was kept at room temperature for 20 minutes to stabilize the luminescence signal, and the luminescence value of each well was scanned with a multi-functional microplate reader at full wavelength. • [Test samples] […]
Background: ATP-based viability assays read luminescence as a measure of living cells.

The test system of the next assay is MKN45 cells. The assay can be described thus: Proliferation of MKN45 cells. The class given is cell-based. Conditions: Homo sapiens, MKN-45; Table 8. On the procedure:
MKN45 is a human poorly differentiated gastric cancer cell line with high MET expression. Cell proliferation experiments were performed according to literature methods (Zhang, D. et al. Bioorg. Med. Chem. 2013, 21, 6804; Riss, T. L.; Moravec, R. A.; Niles, A. L.; et al. Cell Viability Assays 2013 May 1 [Updated 2016 Jul. 1]. In: Sittampalam, G. S.; Grossman, A.; Brimacombe, K.; et al., editors. Assay Guidance Manual [Internet]. Bethesda (MD): Eli Lilly & Company and the National Center for Advancing Translational Sciences; 2004-. Available from: https://www.ncbi.nlm.nih.gov/books/NBK144065/).

Molecules are shown by their SMILES. Some results are limits rather than exact numbers.

Molecule `Cn1ncc2cc(Oc3ccc(NC(=O)c4ccc(C(F)(F)F)n(-c5ccc(F)cc5)c4=O)cc3F)c(-c3cn[nH]c3)cc21` [Example 1, N-(3-fluoro-4-(1-methyl-6-(1H-pyrazol-4-yl)-1H-indazol-5-yloxy)phenyl)-1-(4-fluorophenyl)-6-trifluoromethyl-2-oxo-1,2-dihydmpyridine-3-carboxamide monomethanesulfonate] came in with an IC50 in assay [1] of 1440 nM.

Molecule `Cn1ncc2cc(Oc3ccc(NC(=O)c4ccc(C5CC5)n(-c5ccc(F)cc5)c4=O)cc3F)c(-c3cn[nH]c3)cc21` [Example 2, N-(3-fluoro-4-(1-methyl-6-(1H-pyrazol-4-yl)-1H-indazol-5-yloxy)phenyl)-1-(4-fluorophenyl)-6-cyclopropyl-2-oxo-1,2-dihydmpyridine-3-carboxamide] returned a 50% inhibitory concentration (IC50) in assay [1] of 752 nM.

As for `CCn1ncc2cc(Oc3ccc(NC(=O)c4ccc(C)n(-c5ccc(F)cc5)c4=O)cc3F)c(-c3cn[nH]c3)cc21` [Example 3, N-(3-fluoro-4-(1-ethyl-6-(1H-pyrazol-4-yl)-1H-indazol-5-yloxy)phenyl)-1-(4-fluorophenyl)-6-methyl-2-oxo-1,2-dihydmpyridine-3-carboxamide], the IC50 in assay [1] worked out at 3150 nM. Still for that read-out and setting: the result for `Cc1ccc(C(=O)Nc2ccc(Oc3cc4cnn(C(C)C)c4cc3-c3cn[nH]c3)c(F)c2)c(=O)n1-c1ccc(F)cc1` [Example 4, N-(3-fluoro-4-(1-isopropyl-6-(1H-pyrazol-4-yl)-1H-indazol-5-yloxy)phenyl)-1-(4-fluorophenyl)-6-methyl-2-oxo-1,2-dihydmpyridine-3-carboxamide] reads 4650 nM. In turn, `CCc1ccc(C(=O)Nc2ccc(Oc3cc4cnn(C)c4cc3-c3cn[nH]c3)c(F)c2)c(=O)n1-c1ccc(F)cc1` [Example 5, N-(3-fluoro-4-(1-methyl-6-(1H-pyrazol-4-yl)-1H-indazol-5-yloxy)phenyl)-1-(4-fluorophenyl)-6-ethyl-2-oxo-1,2-dihydropyridine-3-carboxamide] registered an IC50 in assay [1] of 799 nM.

`CC(C)c1ccc(C(=O)Nc2ccc(Oc3cc4cnn(C)c4cc3-c3cn[nH]c3)c(F)c2)c(=O)n1-c1ccc(F)cc1` [Example 6, N-(3-fluoro-4-(1-methyl-6-(1H-pyrazol-4-yl)-1H-indazol-5-yloxy)phenyl)-1-(4-fluorophenyl)-6-isopropyl-2-oxo-1,2-dihydropyridine-3-carboxamide] showed an IC50 in assay [1] of 747 nM. Molecule `CSc1ccc(C(=O)Nc2ccc(Oc3cc4cnn(C)c4cc3-c3cn[nH]c3)c(F)c2)c(=O)n1-c1ccc(F)cc1` [Example 11, N-(3-fluoro-4-(1-methyl-6-(1H-pyrazol-4-yl)-1H-indazol-5-yloxy)phenyl)-1-(4-fluorophenyl)-6-methylthio-2-oxo-1,2-dihydropyidine-3-carboxamide] displayed a concentration for half-maximal inhibition (IC50) with MKN45 cells of 12 nM. On the same count and under the same terms, for `COc1ccc(C(=O)Nc2ccc(Oc3cc4cnn(C)c4cc3-c3cn[nH]c3)c(F)c2)c(=O)n1-c1ccc(F)cc1` [Example 12, N-(3-fluoro-4-(1-methyl-6-(1H-pyrazol-4-yl)-1H-indazol-5-yloxy)phenyl)-1-(4-fluorophenyl)-6-methoxy-2-oxo-1,2-dihydropyridine-3-carboxamide] the value was 4 nM; for `CCOc1ccc(C(=O)Nc2ccc(Oc3cc4cnn(C)c4cc3-c3cn[nH]c3)c(F)c2)c(=O)n1-c1ccc(F)cc1` [Example 14, N-(3-fluoro-4-(1-methyl-6-(1H-pyrazol-4-yl)-1H-indazol-5-yloxy)phenyl)-1-(4-fluorophenyl)-6-ethoxy-2-oxo-12-dihydropyridine-3-carboxamide], 11 nM; for `CC(C)Oc1ccc(C(=O)Nc2ccc(Oc3cc4cnn(C)c4cc3-c3cn[nH]c3)c(F)c2)c(=O)n1-c1ccc(F)cc1` [Example 16, N-(3-fluoro-4-(1-methyl-6-(1H-pyrazol-4-yl)-1H-indazol-5-yloxy)phenyl)-1-(4-fluorophenyl)-6-isopropoxy-2-oxo-1,2-dihydropyridine-3-carboxamide], 9 nM. On to `O=C(Nc1cnn2ccc(N3CCC[C@@H]3c3cc(F)ccc3F)nc12)N1CC[C@H](O)C1` [LOXO-101, Larotrectinib, reference compound], for which the IC50 in assay [1] is 3660 nM; with MKN45 cells it was greater than 10000 nM. In the same order, the values of `Cc1ccc(C(=O)Nc2ccc(Oc3cc4cnn(C)c4cc3-c3cn[nH]c3)c(F)c2)c(=O)n1-c1ccc(F)cc1` [Merestinib, reference compound] are 1010 nM and 19 nM.

One may read the IC50 as the concentration that gives 50% inhibition. High values mean weaker potency in that assay, low ones greater potency in that assay.

The values above are taken from patent US11952364B2, “TRK inhibitors useful as anticancer drugs” (TYLIGAND BIOSCIENCE (SHANGHAI) LIMITED, priority 2018, dated 2024).
